A melting point compilation (Tetko et al.; mined from patent text by program, amines drawn as free bases though some values may be those of a salt)

Row | SMILES | melting point
1 | Fc1cc(CC2(Cc3ccnc(F)c3)c3ccccc3-c3ncccc32)ccn1 | 137 to 140 °C
2 | COc1ccc(C(=O)NCCCCCCCCCCCNC(=O)c2ccc(OC)cc2)cc1 | 150 to 151 °C
3 | CCOC(=O)c1cc(Cl)c(-n2nc(CC)c(C#N)c2N)c(Cl)c1 | 173 to 175 °C
4 | O=c1[nH]c2ccc(S(=O)CCN3CCC(Cc4ccc(Cl)c(Cl)c4)CC3)cc2o1 (stereo not drawn) | 189 to 191 °C
5 | Cc1ccc(N2CN(c3ccccc3)c3[nH]ncc3C2=O)cc1 | 260 to 262 °C
6 | CCOC(=O)c1cc2cccc(NC(=O)OC(C)(C)C)c2[nH]1 | 132 to 133 °C
7 | CN(C)S(=O)(=O)c1cc(-n2c(=O)cc(C(F)(F)F)n(C)c2=O)ccc1Cl | 194 to 196 °C
8 | CN(c1cccc2cc(C3=NCC(C)(CN4CCC5(CC4)OCCO5)S3)[nH]c12)S(=O)(=O)c1cccs1 (stereo not drawn) | 172 to 173 °C
9 | Cc1nnc2n1-c1sc(C#CCn3c(=O)n(C)c(=O)c4ccccc43)cc1C(c1ccccc1Cl)=NC2 | 167 to 170 °C
10 | Cn1nnnc1S(=O)(=O)CCCCBr | 83.5 to 85.5 °C
11 | Cc1cnc(-n2cc(C(F)(F)F)cn2)nc1Oc1cccc(C(F)(F)F)c1 | 103 to 105 °C
12 | CSc1cc2c(cc1C(F)(F)F)N(C(=O)Nc1ccccc1)CC2 | 163 to 165 °C
13 | OCCCCOCCCCOCCCCOCCCCO | 22 °C
14 | O=C(CCn1ccnc1)c1c[nH]c2ccccc12 | 194 to 197 °C
15 | COc1cc(C)c(C(=O)c2c(C)c(C)cc(C)c2C)c(OC)c1OC | 143 °C
16 | CCCCc1nc2cccc(CO)c2n1Cc1ccc(-c2ccccc2-c2nnn[nH]2)cc1 | 152 to 153 °C
17 | CCCn1cc(C2(c3cccc(-c4cccnc4F)c3)N=C(N)N(C)C2=O)cc1C(=O)CC (stereo not drawn) | 118 °C
18 | CCOc1nn(-c2cc(C(F)(F)F)ccn2)cc1CCCOc1ccc(CCC(=O)O)cc1OC | 111 to 112 °C
19 | CC(C)=CC(=O)N[C@H]1CC[C@H](CCN2CCN(c3nccc4c3OCC4)CC2)CC1 | 184 °C
20 | COc1ccc(C2Sc3c(ccc4ccccc34)N(CCN(C)C)C(=O)C2OC)cc1 (stereo not drawn) | 118 to 120 °C
21 | CC1(C)C(=O)Nc2ccc([N+](=O)[O-])cc21 | 192 to 196 °C
22 | CC1=NC(=O)C(Cc2c[nH]c3ccccc23)N(O)C1=O (stereo not drawn) | 166 to 168 °C
23 | CC#CC(=O)N[C@H]1CC[C@H](CCN2CCN(c3nccc4c3OCC4)CC2)CC1 | 176 °C
24 | NC(=O)c1ccc(Oc2nccc(-c3c(-c4ccc(F)cc4)ncn3C3CCNCC3)n2)cc1 | 229 to 230 °C
25 | CC(=O)N1CC(C)(C)c2cc3nc(C(F)(F)F)[nH]c3cc21 | 290 to 291 °C
26 | COC(=O)COc1ccc(CCCO)cc1 | 47 to 48 °C

Row | SMILES | melting point
27 | CC(=O)Nc1nc(/C=C\c2ccc([N+](=O)[O-])cc2)cs1 | 155 to 157 °C
28 | CCCc1ncc(/C=C(\Cc2cccs2)C(=O)O)n1Cc1ccccc1Cl | 200 °C
29 | CN1CCN(c2cc3c(F)cccc3c(=O)[nH]2)CC1 | 238 to 239 °C
30 | CCCCCCCCNC(=O)Nc1ccc(Nc2ccc(N(CC)CCNS(C)(=O)=O)cc2C)c2ccccc12 | 132 to 133 °C
31 | COc1ccc(Nc2nc(Nc3cc4c(cc3OC)CNC(CC3CC3)C(=O)N4C)ncc2Cl)c(-n2cccn2)c1 (stereo not drawn) | 94 to 96 °C
32 | Cc1c(C(=O)Nc2ccc(OCCCN3CCOCC3)c(C#N)c2)cnn1-c1ccc(C(F)(F)F)cc1 | 172 to 174 °C
33 | CC1(C)CNC(=O)C(=O)N1c1cc(F)cc2ccoc12 | 162 to 165 °C
34 | O=S(=O)(O)c1cccc(Nc2ccnc3cc(Cl)ccc23)c1 | > 300 °C
35 | COc1ccc(CN2Cc3cc(N(C)C)ccc3N3CC(=O)N=C23)cc1 | 196 to 200 °C
36 | O=C1CC2(C(=O)N1)c1ccccc1Oc1ccccc12 | 226 to 228 °C
37 | O=C(c1cccc(Cl)c1)c1cccc(Cl)c1 | 117 °C
38 | N#Cc1cc(C(=O)c2cccs2)ccc1O | 216 °C
39 | COC(=O)c1cc2ccsc2s1 | 101 to 105 °C
40 | COc1ccc(-c2ccc(C(=O)N3Cc4cccn4Cc4ccccc43)cc2)cc1 | 187 to 189 °C
41 | CCC(=O)Nc1c(C(=O)c2cc(Cl)ccc2[N+](=O)[O-])[nH]c2cc(Cl)ccc12 | 245 to 246 °C
42 | CN1CCN(c2cc([N+](=O)[O-])ccc2Br)CC1 | 100 to 103 °C
43 | CC1(NC(=NC#N)Nc2cccnc2)CCC1 | 210 to 212 °C
44 | COc1cccc(OC/C=C(\C)C=O)c1 | 45 to 48 °C
45 | CCOc1nsc(NC(=O)N(C)C)c1C#N | 204 to 205 °C
46 | CSc1cnc2cc(-c3cccc(Cl)c3)sc2c1O | > 300 °C
47 | Cn1c([N+](=O)[O-])cnc1COc1ccc(C#N)cc1 | 130 °C
48 | COc1ccc(OCCCC2CCN(c3ccc(Cl)nn3)CC2)c(Cl)c1 | 101 °C
49 | COc1cc(OC(C)(C)C(=O)O)c(-c2cccs2)cc1/C=C/C(=O)c1ccc(NS(C)(=O)=O)cc1 | 181 to 183 °C
50 | CCCCCCCCCCCCCCCCCC(=O)OCCCCCCCCCCCCCC | 40 °C
51 | O=C1c2cccc(O)c2C2(OCCS2)c2c(O)cccc21 | 197 to 199 °C
52 | Cc1nc(N2CCC(NCCC(F)(F)F)C2=O)sc1C(=O)NCc1ccc(F)cc1 (stereo not drawn) | 142 to 143 °C

Row | SMILES | melting point
53 | CC(C)(C)CCOc1c(-c2ccc(S(C)(=O)=O)cc2)cnn(CC(F)(F)F)c1=O | 83 to 85 °C
54 | CCOC(=O)[C@@H](O)[C@@H]1OC(=O)c2cc(OC)c(OCc3ccccc3)cc21 | 138 to 140 °C
55 | Nc1ncc2cc(-c3ccccc3)c(N)nc2n1 | 317 to 318 °C
56 | Cc1cccc(NC(=O)c2cn(-c3ccccc3)c3ccccc3c2=O)n1 | 273 to 274 °C
57 | O=S(=O)(On1nnc2ccc(Cl)cc21)c1ccccc1 | 110 °C
58 | CC(C)(C)c1ccc(Oc2ccc(NC(=O)c3ccccc3C(c3ccc(O)cc3)c3ccc(O)cc3)cn2)cc1 | 121 to 125 °C
59 | COc1cc2ncc(C#N)c(Nc3cccc(Oc4ccccc4)c3)c2cc1OC | 253 to 254 °C
60 | Cc1[nH]n(Cc2cccc(C(=O)O)c2)c2nc(-c3ccncc3)nc(=O)c1-2 | > 300 °C
61 | Cc1nc(-c2cc(N)c(=O)[nH]c2C)cs1 | 192 to 194 °C
62 | COC(=O)CCc1cnoc1-c1ccc(Cl)cc1 | 51 to 52 °C
63 | CCc1cc2c(s1)SCc1cc(=O)n(-c3ccc(Cl)cc3)nc1-2 | 161 to 163 °C
64 | O=C(O)C(Cc1ccccc1)NCc1ccccc1 (stereo not drawn) | 219 to 220 °C
65 | Oc1nc2ccc3sccc3c2nc1O | 187 °C
66 | COc1ccc(OCC(C)Oc2ccc(OC)cc2)cc1 (stereo not drawn) | 84 to 84.5 °C
67 | CC(=O)N[C@@H](CSC(=O)c1ccccc1)C(=O)NCCSC(=O)C(C)(C)C | 133 to 134 °C
68 | CNCC[C@H]1CC[C@H](C(=O)O)CC1 | 212 to 214 °C
69 | N#Cc1ccc2ccc(Br)cc2c1 | 126 to 128 °C
70 | C[Si](C)(C)c1ccc2c(c1)C([Si](C)(C)C)([Si](C)(C)C)c1cc([Si](C)(C)C)ccc1-2 | 141 to 142 °C
71 | O=c1c(-c2cccc(C(F)(F)F)c2)coc2c(O)c(O)ccc12 | 225 °C
72 | COc1cc2c(cc1OC)C(COCCN1CCCCC1)OCCC2 (stereo not drawn) | 124 °C
73 | NC(=NO)C1CCN(C(=O)OCc2ccccc2)CC1 | 111 to 113 °C
74 | CC(C)NC(=O)OCC(=O)c1ccccc1 | 108 to 110 °C
75 | C#CCOc1cc(C(=O)O)cc([N+](=O)[O-])c1C(=O)c1ccccc1 | 169 to 172 °C
76 | CCOC(=O)CC[C@H](NC(=O)c1ccc(NCc2cnc3nc(N)nc(N)c3c2)cc1)C(=O)OCC | 262 °C
77 | CCOC(=O)Nc1ccn2cc(C)nc2c1Br | 137 to 138 °C
78 | COC(=O)CCCc1cc2cc(C(F)(F)F)ccc2n1S(=O)(=O)c1ccc2nc(C)oc2c1 | 78 to 82 °C

Row | SMILES | melting point
79 | O=C(CBr)OCN1C(=O)NC(c2ccccc2)(c2ccccc2)C1=O | 179 to 183 °C
80 | Cc1nnsc1C(=O)Nc1ccc(-n2nc(C3CC3)c(Cl)c2C2CC2)c(F)c1 | 153 to 156 °C
81 | CC1(C)CON(Cc2ccc(NC(=O)C3=C(C(=O)O)CCCC3)cc2Br)C1=O | 149 to 151 °C
82 | Cc1cnc2c(c1)n(C(C)C)c(=O)n2-c1ccc(Oc2nc3cccnc3n2C)cc1 | 252 °C
83 | Cc1ccc(C(=O)NC(NC(=NC#N)Nc2cncnc2)C(Cl)(Cl)Cl)cc1 (stereo not drawn) | 186 to 188 °C
84 | CCN(CCO)CCCC1CCN(S(=O)(=O)c2ccc(C(F)(F)F)cc2)CC1 | 71.3 to 72.7 °C
85 | O=C(O)c1cccc2c1CCc1cc(F)ccc1S2 | 200 to 202 °C
86 | Fc1ccc2[nH]c3c4c(Cl)cccc4nc-3cc2c1 | 201 to 204 °C
87 | Cc1ccc(CC2CCN(C(=O)C(=O)Nc3ccc4[nH]c(=O)[nH]c4c3)CC2)cc1 | > 280 °C
88 | COc1cc(OC)nc(NC(=O)NS(=O)(=O)c2c3ccccc3nn2C)n1 | 199 to 202 °C
89 | CCn1nc2oc(C=CC(N)=O)c(C)c2c1C | 258 to 260 °C
90 | Cc1cc2c(cc1C)C1(CO2)C(=O)Nc2ccccc21 (stereo not drawn) | 206 to 207 °C
91 | CC(C1OCCO1)N(C)C(=O)Nc1nnc(S(=O)(=O)N(C)C)s1 (stereo not drawn) | 194 to 196 °C
92 | CC(=O)Nc1ccccc1C1OC(=O)NC1=O (stereo not drawn) | 197 to 198 °C
93 | CCC(c1ccccn1)N(Cc1ccc(C(=O)OC)cc1)S(=O)(=O)c1ccc(F)cc1 (stereo not drawn) | 82 to 84 °C
94 | CCCCCCCC(=O)c1cc2sc3sccc3c2s1 | 130 to 131 °C
95 | CS(=O)(=O)c1ccc(-n2cccc2-c2ccc(Cl)cc2)cc1 | 203 to 205 °C
96 | N#Cc1nc(F)c(F)c(F)c1Cl | 41.5 to 43 °C
97 | CC1(C)C(=O)Nc2cc3[nH]c(C4CCCCC4)nc3cc21 | 315 to 318 °C
98 | COC(=O)c1ncsc1CCNC(=O)OCc1ccccc1 | 108 to 110 °C
99 | C=CC(=O)Nc1cccc(OC(=O)NCCCCCCCCCCCCCCCCCC)c1 | 124 to 126 °C
100 | CCCCC1=CC(O)(C(Br)Br)N(Cc2ccccc2)C1=O (stereo not drawn) | 92 to 93 °C
101 | OCCc1noc(Cc2ccc(-c3ccccc3)cc2)n1 | 94 to 95 °C
102 | CCCCCCCCCCNC(=O)C=Cc1cccc(N2CC(C(=O)OCCN(CC)CC)CC2=O)c1 (stereo not drawn) | 78 to 80 °C
103 | CN(C)CCC1(CO)c2ccccc2N(C)c2ccc(Cl)cc21 (stereo not drawn) | 100 °C
